Here are results for 24 molecules from patent US9302988B2, “Fluoromethyl-substituted pyrrole carboxamides” (GRÜNENTHAL GMBH, priority 2012, dated 2016).

A value given as a limit tells only on which side of the number the result lay.

The target of this test is T1, Human CaV2.2 channels (Homo sapiens, UniProt Q00975).
T1 construct: expressed in transfected cells
Kind of test: Fluorescent assay for CaV2.2 channels using potassium depolarization to induce channel opening (FLIPR, Fluo-4). The test is classed as cell-based. The settings on record: 3 μM test compound, 30 mM KCl, HEK293 cells stably expressing human CaV2.2; read-out: %-Inhib (CaV2.2) @3 μM @30 mM KCl. An excerpt: In the process, the Ca^2+ influx is quantified in the FLIPR assay with the aid of a Ca^2+-sensitive dye (type Fluo-4, Molecular Probes Europe BV, Leiden, the Netherlands) in a fluorescent imaging plate reader (FLIPR 3, Molecular Devices, Sunnyvale, USA), as described hereinafter.
2.1 Fluorescent Assay for CaV2.2 Channels Using Potassium Depolarization to Induce Channel Opening
Human CaV2.2 channels were stably expressed in HEK293 cells together with alpha2-delta and beta subunits of voltage gated calcium channels. In addition, an inwardly rectifying potassium channel (Kir2.3) was stably expressed in these cells to augment control of the cell membrane potential by the concentration of extracellular potassium ions. Raise of the extracellular potassium concentration leads to depolarization of the membrane potential and thus regulates the voltage dependent state of CaV2.2 channels. For preparation, cells were seeded in black poly-D-lysine coated 96-well plates (Becton Dickinson, Biocoat 4640) in 100 μl medium [500 ml DMEM/F-12 plus Glutamax (Invitrogen 31331-093) plus 5.5 ml MEM NEAA 100× (Invitrogen 11140-035) plus 50 ml FBS decomplemented (Invitrogen 10270-106) plus 4.4 ml Geneticin (Invitrogen 10131-027) plus 1.1 ml Hygromycin B (Invitrogen 10687-010) plus 68.75 μl Puromycin (Clontech, 631306)] at a cell density of 45.000 cells per well.
Plates were incubated at 37° C. (5% CO2) for 20 to 23 hours. On the day of experiment medium was discarded and cells were loaded with Fluo 4 by addition of 100 μl of basic assay buffer (10 mM HEPES, 30 mM KCl, 120 mM NaCl, 0.8 mM CaCl2, 1.7 mM MgCl2, 10 mM Glucose, 0.1% BSA. pH 7.4) containing 2 μM Fluo 4 (Molecular Probes; F-14201), 0.01% pluronic acid (Molecular Probes; P-6866) and 2.5 mM probenecid (Molecular Probes; P36400). Cells were incubated in the dark at 25° C. for 60 min. Then the dye containing buffer was discarded and 100 μl basic assay buffer was added. Subsequently cells were incubated in the dark at 25° C. for 15 min. 25 μl of basic assay buffer with or without test compound were added and cells were incubated again in the dark at 25° C. for 15 min. Fluorescence intensity was measured on a FLIPR 3 instrument (Molecular Devices Corp., Sunnyvale, Calif.) with excitation at 480 nm and emission at 535 nm. After continuously reading fluorescence for 30 sec, 50 μl of basic assay buffer containing 210 mM KCl (NaCl omitted) were added for depolarization. Peak fluorescent signal intensity was determined and the amplitude of the peak signal, normalized to base line, was used to measure channel inhibition by test compounds.

T1 sequence (Q00975 whole entry): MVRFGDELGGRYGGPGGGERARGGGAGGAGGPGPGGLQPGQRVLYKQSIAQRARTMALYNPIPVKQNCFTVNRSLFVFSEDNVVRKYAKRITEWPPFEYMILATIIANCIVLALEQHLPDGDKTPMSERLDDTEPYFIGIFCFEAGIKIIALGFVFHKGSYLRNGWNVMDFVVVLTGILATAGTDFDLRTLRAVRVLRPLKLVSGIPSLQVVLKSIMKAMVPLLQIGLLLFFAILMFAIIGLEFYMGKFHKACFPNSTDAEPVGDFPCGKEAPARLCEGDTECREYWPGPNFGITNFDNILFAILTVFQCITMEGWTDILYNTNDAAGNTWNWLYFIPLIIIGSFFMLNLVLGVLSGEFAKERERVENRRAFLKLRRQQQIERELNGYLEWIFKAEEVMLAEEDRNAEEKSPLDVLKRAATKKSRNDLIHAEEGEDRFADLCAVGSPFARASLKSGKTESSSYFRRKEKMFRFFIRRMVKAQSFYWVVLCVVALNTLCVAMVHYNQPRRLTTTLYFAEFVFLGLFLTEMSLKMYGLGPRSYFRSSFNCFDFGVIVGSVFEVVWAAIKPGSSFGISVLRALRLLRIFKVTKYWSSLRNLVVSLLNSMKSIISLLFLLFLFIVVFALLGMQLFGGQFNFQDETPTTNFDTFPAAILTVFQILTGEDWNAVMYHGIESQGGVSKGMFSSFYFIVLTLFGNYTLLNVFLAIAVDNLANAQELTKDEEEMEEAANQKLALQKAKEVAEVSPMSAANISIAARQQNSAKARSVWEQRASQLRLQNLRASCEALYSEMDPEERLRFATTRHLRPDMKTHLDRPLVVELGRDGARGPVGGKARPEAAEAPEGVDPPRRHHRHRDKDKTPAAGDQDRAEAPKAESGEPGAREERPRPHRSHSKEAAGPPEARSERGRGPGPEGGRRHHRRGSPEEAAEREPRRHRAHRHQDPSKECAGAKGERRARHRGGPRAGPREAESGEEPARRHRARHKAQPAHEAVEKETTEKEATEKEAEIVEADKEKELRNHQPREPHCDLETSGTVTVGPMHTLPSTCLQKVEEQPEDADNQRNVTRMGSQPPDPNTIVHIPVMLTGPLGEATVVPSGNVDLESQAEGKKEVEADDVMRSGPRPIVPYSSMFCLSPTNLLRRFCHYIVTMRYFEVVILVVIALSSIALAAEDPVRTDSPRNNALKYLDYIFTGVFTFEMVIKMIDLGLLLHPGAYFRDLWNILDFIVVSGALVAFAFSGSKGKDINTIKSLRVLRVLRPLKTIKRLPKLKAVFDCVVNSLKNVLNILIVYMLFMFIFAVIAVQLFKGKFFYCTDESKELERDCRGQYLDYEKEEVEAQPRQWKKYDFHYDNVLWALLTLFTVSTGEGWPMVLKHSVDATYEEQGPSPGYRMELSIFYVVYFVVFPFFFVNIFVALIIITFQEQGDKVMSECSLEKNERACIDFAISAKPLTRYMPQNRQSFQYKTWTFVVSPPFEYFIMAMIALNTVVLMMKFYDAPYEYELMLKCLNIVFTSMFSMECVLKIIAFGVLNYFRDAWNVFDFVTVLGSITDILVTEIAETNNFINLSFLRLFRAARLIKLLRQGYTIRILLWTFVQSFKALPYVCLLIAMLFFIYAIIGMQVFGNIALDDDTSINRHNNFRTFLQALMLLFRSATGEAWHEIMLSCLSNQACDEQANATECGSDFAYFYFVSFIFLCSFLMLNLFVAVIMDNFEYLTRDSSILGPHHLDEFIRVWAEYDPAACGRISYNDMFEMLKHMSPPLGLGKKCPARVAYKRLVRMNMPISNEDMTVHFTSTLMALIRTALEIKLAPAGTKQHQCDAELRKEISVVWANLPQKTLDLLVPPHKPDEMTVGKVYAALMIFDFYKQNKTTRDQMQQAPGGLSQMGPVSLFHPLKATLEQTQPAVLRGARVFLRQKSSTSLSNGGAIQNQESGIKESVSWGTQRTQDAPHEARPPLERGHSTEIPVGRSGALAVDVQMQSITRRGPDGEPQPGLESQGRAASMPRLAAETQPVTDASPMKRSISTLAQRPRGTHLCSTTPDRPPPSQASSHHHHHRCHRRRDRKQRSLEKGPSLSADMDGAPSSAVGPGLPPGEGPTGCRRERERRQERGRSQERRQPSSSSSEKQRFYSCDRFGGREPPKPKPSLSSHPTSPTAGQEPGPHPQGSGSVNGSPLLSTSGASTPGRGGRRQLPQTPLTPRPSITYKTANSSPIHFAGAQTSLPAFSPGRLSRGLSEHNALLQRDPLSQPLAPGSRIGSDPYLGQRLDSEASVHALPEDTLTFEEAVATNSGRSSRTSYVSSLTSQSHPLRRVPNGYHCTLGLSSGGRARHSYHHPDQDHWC
T1 sequence (P54289 25-1103, further chain): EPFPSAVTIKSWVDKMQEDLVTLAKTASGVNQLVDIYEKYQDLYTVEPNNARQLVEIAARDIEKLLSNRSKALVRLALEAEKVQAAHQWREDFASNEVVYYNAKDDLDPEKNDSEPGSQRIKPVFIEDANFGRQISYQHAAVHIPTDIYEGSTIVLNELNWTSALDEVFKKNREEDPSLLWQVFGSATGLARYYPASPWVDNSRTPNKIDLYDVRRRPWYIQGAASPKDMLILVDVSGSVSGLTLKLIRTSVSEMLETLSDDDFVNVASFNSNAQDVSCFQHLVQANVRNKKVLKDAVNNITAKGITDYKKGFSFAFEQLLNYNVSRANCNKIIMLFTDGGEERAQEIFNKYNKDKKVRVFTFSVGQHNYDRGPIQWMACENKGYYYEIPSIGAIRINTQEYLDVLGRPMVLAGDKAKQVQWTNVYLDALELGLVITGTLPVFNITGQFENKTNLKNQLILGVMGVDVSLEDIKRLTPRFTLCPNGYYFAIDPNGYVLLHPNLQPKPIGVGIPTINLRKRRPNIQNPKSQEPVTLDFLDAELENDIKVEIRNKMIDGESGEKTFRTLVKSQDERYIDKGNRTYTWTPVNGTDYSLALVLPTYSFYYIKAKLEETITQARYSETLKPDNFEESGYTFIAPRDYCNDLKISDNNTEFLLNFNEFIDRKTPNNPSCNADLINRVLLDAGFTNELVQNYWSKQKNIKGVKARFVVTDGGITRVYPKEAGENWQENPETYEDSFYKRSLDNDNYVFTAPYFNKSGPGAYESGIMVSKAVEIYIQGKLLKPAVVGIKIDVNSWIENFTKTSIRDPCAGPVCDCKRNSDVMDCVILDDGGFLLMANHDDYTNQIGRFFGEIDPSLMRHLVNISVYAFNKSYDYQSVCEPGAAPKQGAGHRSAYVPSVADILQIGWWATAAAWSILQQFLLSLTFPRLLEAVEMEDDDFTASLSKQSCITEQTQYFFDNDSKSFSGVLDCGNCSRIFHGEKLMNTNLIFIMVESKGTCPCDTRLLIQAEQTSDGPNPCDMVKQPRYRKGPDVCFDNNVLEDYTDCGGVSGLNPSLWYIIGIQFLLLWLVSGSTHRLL
T1 sequence (P54284 whole entry, further chain): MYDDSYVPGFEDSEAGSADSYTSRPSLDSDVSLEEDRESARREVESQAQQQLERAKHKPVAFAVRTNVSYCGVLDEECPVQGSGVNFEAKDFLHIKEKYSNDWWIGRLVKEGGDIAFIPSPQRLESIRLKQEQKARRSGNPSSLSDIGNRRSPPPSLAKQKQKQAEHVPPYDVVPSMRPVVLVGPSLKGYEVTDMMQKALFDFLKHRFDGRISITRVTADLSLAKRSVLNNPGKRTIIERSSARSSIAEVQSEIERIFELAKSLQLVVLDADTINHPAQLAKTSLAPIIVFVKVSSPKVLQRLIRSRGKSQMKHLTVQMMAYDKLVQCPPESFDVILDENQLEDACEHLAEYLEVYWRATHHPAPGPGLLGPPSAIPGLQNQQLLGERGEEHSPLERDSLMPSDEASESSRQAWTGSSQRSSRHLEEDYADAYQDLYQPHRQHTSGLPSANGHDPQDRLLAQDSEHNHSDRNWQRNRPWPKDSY

As to `Cc1c(-c2ccc(C(F)(F)F)cc2)c(C(=O)N2CC(O)C2)n(Cc2ccccc2)c1C(F)(F)F` [SC-232, [1-Benzyl-4-methyl-5-(trifluoromethyl)-3-[4-(trifluoromethyl)-phenyl]-1H-pyrrol-2-yl]-(3-hydroxy-azetidin-1-yl)-methanone], the inhibition at 3 µM is 40 to 75%. With `O=C1CN(C(=O)c2c(-c3ccc(Cl)cc3)cc(C(F)(F)F)n2Cc2cccc(Cl)c2)CCN1` [SC-81, 4-[3-(4-Chlorophenyl)-1-[(3-chlorophenyl)-methyl]-5-(trifluoromethyl)-1H-pyrrole-2-carbonyl]-piperazin-2-one] the figure was greater than 95%; with `Cc1c(-c2ccc(C(F)(F)F)cc2)c(C(=O)N(C)CC(C)(C)CO)n(Cc2ccccc2)c1C(F)(F)F` [SC-227, 1-Benzyl-N-(3-hydroxy-2,2-dimethyl-propyl)-N,4-dimethyl-5-(trifluoromethyl)-3-[4-(trifluoromethyl)-phenyl]-1H-pyrrole-2-carboxylic acid amide], 75 to 95%; with `CN(CC(C)(C)CN)C(=O)c1c(-c2ccc(Cl)cc2)cc(C(F)(F)F)n1Cc1ccccc1` [SC-188, N-(3-Amino-2,2-dimethyl-propyl)-1-benzyl-3-(4-chlorophenyl)-N-methyl-5-(trifluoromethyl)-1H-pyrrole-2-carboxylic acid amide], 75 to 95%. Consider `Cc1c(-c2ccc(F)c(Cl)c2)c(C(=O)N2CCOC(C)(C)C2)n(Cc2ccccc2)c1C(F)(F)F` [SC-258, [1-Benzyl-3-(3-chloro-4-fluoro-phenyl)-4-methyl-5-(trifluoromethyl)-1H-pyrrol-2-yl]-(2,2-dimethyl-morpholin-4-yl)-methanone], for which the inhibition at 3 µM fell in the range of 75 to 95%. Regarding `Cc1c(-c2ccc(Cl)cc2)c(C(=O)N2CCOCC2)n(CCOc2ccc(F)cc2)c1C(F)(F)F` [SC-51, [3-(4-Chlorophenyl)-1-[2-(4-fluoro-phenoxy)-ethyl]-4-methyl-5-(trifluoromethyl)-1H-pyrrol-2-yl]-morpholin-4-yl-methanone], the inhibition at 3 µM was greater than 95%. With `CC1(C)CN(C(=O)c2c(-c3ccc(Cl)cc3)cc(C(F)(F)F)n2Cc2ccccc2)CCN1` [SC-82, [1-Benzyl-3-(4-chlorophenyl)-5-(trifluoromethyl)-1H-pyrrol-2-yl]-(3,3-dimethyl-piperazin-1-yl)-methanone] the figure was 75 to 95%; with `CN(CC(C)(C)C)C(=O)c1c(-c2ccc(Cl)cc2)cc(C(F)(F)F)n1Cc1cccc(Cl)c1` [SC-71, 3-(4-Chlorophenyl)-1-[(3-chlorophenyl)-methyl]-N-(2,2-dimethyl-propyl)-N-methyl-5-(trifluoromethyl)-1H-pyrrole-2-carboxylic acid amide], 75 to 95%. With `Cc1c(-c2ccc(F)c(Cl)c2)c(C(=O)N2CC(O)C2)n(Cc2ccccc2)c1C(F)(F)F` [SC-255, [1-Benzyl-3-(3-chloro-4-fluoro-phenyl)-4-methyl-5-(trifluoromethyl)-1H-pyrrol-2-yl]-(3-hydroxy-azetidin-1-yl)-methanone], the inhibition at 3 µM was in the range of 40 to 75%.

With `CCN(CCS(C)(=O)=O)C(=O)c1c(-c2ccc(Cl)cc2)c(C)c(C(F)(F)F)n1Cc1ccccc1` [SC-128, 1-Benzyl-3-(4-chlorophenyl)-N-ethyl-4-methyl-N-(2-methylsulfonyl-ethyl)-5-(trifluoromethyl)-1H-pyrrole-2-carboxylic acid amide], the inhibition at 3 µM was greater than 95%. For `Cc1c(-c2ccc(Cl)c(F)c2)c(C(=O)N2CCOCC2)n(Cc2ccccc2)c1C(F)(F)F` [SC-103, [1-Benzyl-3-(4-chloro-3-fluoro-phenyl)-4-methyl-5-(trifluoromethyl)-1H-pyrrol-2-yl]-morpholin-4-yl-methanone], the inhibition at 3 µM is 75 to 95%. `Cc1c(-c2ccc(Cl)cc2)c(C(=O)N2CCC(O)CC2)n(Cc2ccccc2)c1C(F)(F)F` [SC-17, [1-Benzyl-3-(4-chlorophenyl)-4-methyl-5-(trifluoromethyl)-1H-pyrrol-2-yl]-(4-hydroxy-piperidin-1-yl)-methanone]: the inhibition at 3 µM was greater than 95%. For the molecule `Cc1c(-c2ccc(Cl)cc2F)c(C(=O)N(C)CC2CCCO2)n(Cc2ccccc2)c1C(F)(F)F` (stereo not drawn) [SC-165, 1-Benzyl-3-(4-chloro-2-fluoro-phenyl)-N,4-dimethyl-N-(tetrahydro-furan-2-yl-methyl)-5-(trifluoromethyl)-1H-pyrrole-2-carboxylic acid amide], the inhibition at 3 µM is greater than 95%. On to `Cc1c(-c2ccc(Cl)c(F)c2)c(C(=O)N(C)C(C)(C)CO)n(Cc2ccccc2)c1C(F)(F)F` [SC-248, 1-Benzyl-3-(4-chloro-3-fluoro-phenyl)-N-(2-hydroxy-1,1-dimethyl-ethyl)-N,4-dimethyl-5-(trifluoromethyl)-1H-pyrrole-2-carboxylic acid amide], for which the inhibition at 3 µM was 75 to 95%. Consider `Cc1c(-c2ccc(C#N)cc2F)c(C(=O)N2CCOCC2)n(Cc2ccccc2)c1C(F)(F)F` [SC-264, 4-[1-Benzyl-4-methyl-2-(morpholine-4-carbonyl)-5-(trifluoromethyl)-1H-pyrrol-3-yl]-3-fluoro-benzonitrile], for which the inhibition at 3 µM fell in the range of 75 to 95%. Turning to `O=C(c1c(-c2ccc(Cl)cc2)cc(C(F)(F)F)n1Cc1ccccc1)N1CCOCC1` [SC-01, [1-Benzyl-3-(4-chlorophenyl)-5-(trifluoromethyl)-1H-pyrrol-2-yl]-morpholin-4-yl-methanone], the inhibition at 3 µM is greater than 95%.

With `CC(C)S(=O)(=O)CCN(C)C(=O)c1c(-c2ccc(Cl)cc2)cc(C(F)(F)F)n1Cc1ccccc1` [SC-194, 1-Benzyl-3-(4-chlorophenyl)-N-[2-(isopropylsulfonyl)-ethyl]-N-methyl-5-(trifluoromethyl)-1H-pyrrole-2-carboxylic acid amide], the inhibition at 3 µM is greater than 95%. With `Cc1c(-c2ccc(F)cc2)c(C(=O)N(C)C(C)(C)CO)n(Cc2ccccc2)c1C(F)(F)F` [SC-222, 1-Benzyl-3-(4-fluorophenyl)-N-(2-hydroxy-1,1-dimethyl-ethyl)-N,4-dimethyl-5-(trifluoromethyl)-1H-pyrrole-2-carboxylic acid amide], the inhibition at 3 µM is greater than 95%.

Turning to `Cc1cnc(CN(C)C(=O)c2c(-c3ccc(Cl)cc3)c(C)c(C(F)(F)F)n2Cc2ccccc2)cn1` [SC-151, 1-Benzyl-3-(4-chlorophenyl)-N,4-dimethyl-N-[(5-methyl-pyrazin-2-yl)-methyl]-5-(trifluoromethyl)-1H-pyrrole-2-carboxylic acid amide], the inhibition at 3 µM is greater than 95%. For the molecule `CN(CC1CCC[C@@H]1O)C(=O)c1c(-c2ccc(Cl)cc2)cc(C(F)(F)F)n1Cc1ccccc1` (stereo partly drawn) [SC-199, 1-Benzyl-3-(4-chlorophenyl)-N-[[(2S)-2-hydroxy-cyclopentyl]-methyl]-N-methyl-5-(trifluoromethyl)-1H-pyrrole-2-carboxylic acid amide], the inhibition at 3 µM is greater than 95%. Turning to `Cc1c(-c2ccc(Cl)c(F)c2)c(C(=O)N(C)CCS(C)(=O)=O)n(Cc2ccccc2)c1C(F)(F)F` [SC-244, 1-Benzyl-3-(4-chloro-3-fluoro-phenyl)-N,4-dimethyl-N-(2-methylsulfonyl-ethyl)-5-(trifluoromethyl)-1H-pyrrole-2-carboxylic acid amide], the inhibition at 3 µM was 75 to 95%. Take `Cc1c(-c2ccc(F)cc2)c(C(=O)N2CC(O)C2)n(Cc2ccccc2)c1C(F)(F)F` [SC-223, [1-Benzyl-3-(4-fluorophenyl)-4-methyl-5-(trifluoromethyl)-1H-pyrrol-2-yl]-(3-hydroxy-azetidin-1-yl)-methanone]: the inhibition at 3 µM was 75 to 95%. With `CN(CC(C)(C)N1CCOCC1)C(=O)c1c(-c2ccc(Cl)cc2)cc(C(F)(F)F)n1Cc1ccccc1` [SC-85, 1-Benzyl-3-(4-chlorophenyl)-N-methyl-N-(2-methyl-2-morpholin-4-yl-propyl)-5-(trifluoromethyl)-1H-pyrrole-2-carboxylic acid amide] the figure was greater than 95%. With `CS(=O)(=O)CCNC(=O)c1c(-c2ccc(Cl)cc2)cc(C(F)(F)F)n1Cc1ccccc1` [SC-191, 1-Benzyl-3-(4-chlorophenyl)-N-(2-methylsulfonyl-ethyl)-5-(trifluoromethyl)-1H-pyrrole-2-carboxylic acid amide] the figure was 75 to 95%.
